Reference: patent US11925195B2, “Synergistic nutritional compositions for treating cerebrovascular diseases” (CELAGENEX RESEARCH (INDIA) PVT. LTD., priority 2019, dated 2024)

Key:
Type in all cases: in vivo, Wistar Rats
[1] = test system: TNF alpha; assay: Rat TNF alpha level after global ischemia reperfusion; details: oral 10 days (Std 9.3 mg/kg, NBP 49.6 mg/kg, NR 31 mg/kg); 30 mins global ischemia on 7th day, 72 hrs reperfusion; mean ± SEM, n = 6; I/R control 172.17 ± 6.35
[2] = Rat body weight in global ischemia reperfusion study; details: mean ± SEM, n = 6; for Body Weight, Basal: male Wistar rats; for Body Weight, Week 01: oral daily dosing (Standard 9.3 mg/kg, NBP 49.6 mg/kg, NR 31 mg/kg)
[3] = Rat feed consumption in global ischemia reperfusion study; details: oral daily dosing (Standard 9.3 mg/kg, NBP 49.6 mg/kg, NR 31 mg/kg)
[4] = test system: Interleukin - 6; assay: Rat Interleukin-6 level after global ischemia reperfusion; details: oral 10 days (Standard 9.3 mg/kg, NBP 49.6 mg/kg, NR 31 mg/kg); 30 mins global ischemia on 7th day, 72 hrs reperfusion; mean ± SEM, n = 6; I/R control 121.83 ± 1.65

Row | SMILES | TNF alpha Level [1] | Body Weight, Basal [2] | Body Weight, Week 01 [2] | Feed Consumption, Week 01 [3] | Interleukin - 6 Levels [4]
1 | NC(=O)c1ccc[n+]([C@@H]2O[C@H](CO)[C@@H](O)[C@H]2O)c1.[Cl-] [Nicotinamide Riboside chloride (NR), nicotinamide riboside chloride] | 160.33 ± 4.79 pg/mL | 215.00 ± 1.46 gm | 224.83 ± 1.08 gm | 99.71 ± 1.04 gm | 109.56 ± 0.27 pg/mL
2 | CCCCC1OC(=O)c2ccccc21 (racemic) [3-N-butylpthalide (NBP), 3-N-butylphthalide] | 132.00 ± 2.34 pg/mL | 214.50 ± 1.12 gm | 224.50 ± 0.76 gm | 99.57 ± 1.00 gm | 85.39 ± 0.62 pg/mL
